Assay results: US12622962B2 (priority 2019, dated 2026)

What was measured:
[1] = test system: HBsAg antigen-specific IFN-γ; set-up: species or system C57BL/6(N) mice; conditions: mouse, in vivo
[2] = test system: HBcAg antigen-specific IFN-γ; set-up: species or system C57BL/6(N) mice; conditions: mouse, in vivo

QS-21 [QS21]
induced production level of HBsAg-specific IFN-γ, CpG T1 with different saponins [1]: best effect
induced production level of HBcAg-specific IFN-γ, CpG T1 with different saponins [2]: best effect
